Target: T1, KDM4A (Homo sapiens, UniProt O75164)
T1 sequence (O75164 2-1064): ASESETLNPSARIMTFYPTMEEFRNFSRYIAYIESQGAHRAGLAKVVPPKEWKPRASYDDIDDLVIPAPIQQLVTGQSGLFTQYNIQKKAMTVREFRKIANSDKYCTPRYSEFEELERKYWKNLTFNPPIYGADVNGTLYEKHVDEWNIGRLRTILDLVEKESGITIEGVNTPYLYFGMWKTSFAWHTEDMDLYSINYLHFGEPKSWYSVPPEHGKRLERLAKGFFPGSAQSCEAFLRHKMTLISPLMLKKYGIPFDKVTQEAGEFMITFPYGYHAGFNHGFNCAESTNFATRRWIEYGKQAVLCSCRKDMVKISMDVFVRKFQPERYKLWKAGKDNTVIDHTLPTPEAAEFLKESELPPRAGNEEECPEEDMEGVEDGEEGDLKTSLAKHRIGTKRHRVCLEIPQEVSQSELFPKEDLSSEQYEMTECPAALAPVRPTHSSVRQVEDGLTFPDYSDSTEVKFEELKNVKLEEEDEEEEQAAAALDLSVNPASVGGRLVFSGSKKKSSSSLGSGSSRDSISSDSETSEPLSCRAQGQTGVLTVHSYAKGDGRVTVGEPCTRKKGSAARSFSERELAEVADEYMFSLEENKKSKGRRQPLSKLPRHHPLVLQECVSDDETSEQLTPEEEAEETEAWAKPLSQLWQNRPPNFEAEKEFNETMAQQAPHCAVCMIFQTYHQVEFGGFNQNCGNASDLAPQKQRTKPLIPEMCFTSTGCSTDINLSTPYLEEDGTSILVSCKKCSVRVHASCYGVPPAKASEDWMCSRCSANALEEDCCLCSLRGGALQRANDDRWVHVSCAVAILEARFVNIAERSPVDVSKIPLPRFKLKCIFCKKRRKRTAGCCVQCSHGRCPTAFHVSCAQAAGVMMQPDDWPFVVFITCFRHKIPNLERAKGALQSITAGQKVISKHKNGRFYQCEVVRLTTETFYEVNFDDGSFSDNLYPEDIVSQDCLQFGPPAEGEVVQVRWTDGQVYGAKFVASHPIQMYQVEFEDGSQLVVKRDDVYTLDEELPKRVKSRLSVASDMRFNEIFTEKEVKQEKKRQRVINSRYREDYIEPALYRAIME
Assay: FDH-coupled demethylase assay, recombinant KDM4A with H3K9me3 peptide (Cayman kit […])
Type: biochemical

## CC(C)(C)OC(=O)NCc1cc2ccccc2[te]1 [1c, tert-Butyl benzo[b]tellurophen-2-ylmethylcarbamate]
  IC50: 30.2 ± 4.6 µM
